The record followed here is paper PMC7217877, “N-AS-triggered SPMs are direct regulators of microglia in a model of Alzheimer’s disease” (Nature Communications, 2020).

For data set [1], the target named is T1, COX2 WT (Homo sapiens, UniProt P35354).
T1 construct: His (N); made in house
T1 sequence (P35354 18-604): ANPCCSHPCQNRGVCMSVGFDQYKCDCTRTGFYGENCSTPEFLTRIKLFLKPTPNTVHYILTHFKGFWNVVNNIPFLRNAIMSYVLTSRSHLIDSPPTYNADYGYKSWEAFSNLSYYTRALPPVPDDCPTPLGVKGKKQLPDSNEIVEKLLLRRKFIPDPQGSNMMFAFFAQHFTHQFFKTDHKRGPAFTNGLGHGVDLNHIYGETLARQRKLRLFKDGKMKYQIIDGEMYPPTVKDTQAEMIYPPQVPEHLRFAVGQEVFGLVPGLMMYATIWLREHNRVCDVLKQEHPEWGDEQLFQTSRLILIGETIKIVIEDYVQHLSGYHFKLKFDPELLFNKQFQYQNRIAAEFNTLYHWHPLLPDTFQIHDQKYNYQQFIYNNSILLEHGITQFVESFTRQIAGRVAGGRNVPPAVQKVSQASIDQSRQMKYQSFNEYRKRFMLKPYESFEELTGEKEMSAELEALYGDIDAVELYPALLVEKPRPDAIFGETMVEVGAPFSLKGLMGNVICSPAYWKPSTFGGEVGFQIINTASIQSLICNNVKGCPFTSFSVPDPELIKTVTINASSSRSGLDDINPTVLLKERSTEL
Nature of the data set: filter binding assay of [14C] N-AS to COX2. Particulars: COX2 Control, replicates. The source says: Single point mutations in SphK1 (R56A, R57A, R24A, R185A, D178A, and F192A) and COX2 (S565A, N181A, T564A, and S567A) were generated using the In-Fusion Cloning Kits (Clontech) and ORF cDNA expression plasmids of human SphK1 and COX2 gene (Sino Biological Inc, HG15679-NH and HG12036-NH), according to the manufacturer’s instructions. The forward and reverse primers described in Supplementary Table 4. The SphK1 WT, SphK1 mutants, COX2 WT, and COX2 mutant plasmids were transformed in the One shot TOP 10 competent cell (Invitrogen). The bacteria were grown in Luria-Bertani (LB, Invitrogen) plates supplemented with 50 μg ml^−1 kanamycin (Sigma-Aldrich) at 37 °C. The bacterial cell pellets were resuspended in lysis buffer containing 20 mM sodium phosphate (GE Healthcare), 500 mM NaCl (GE Healthcare), 20 mM imidazole (pH 7.4) (GE Healthcare), 0.2 mg ml^−1 lysozyme (Sigma-Aldrich), 20 μg ml^−1 DNase I (Roche), 1 mM MgCl2 (Sigma-Aldrich), and 1 mM PMSF (Sigma-Aldrich) before being lysed by sonication and clarified by centrifugation at 15,493×g for 10 min. Proteins were purified from the soluble fraction using His-Spin Trap columns (GE Healthcare) and the binding and acetylation assays were performed.
Briefly, SphK1 WT and mutant enzymes (1 mU) were resuspended in 100 μl reaction buffer (20 mM HEPES; pH 7.4, 50 mM NaCl, 10 mM MgCl2, 1 mM EGTA, 0.02% Triton-X100, and 100 μM sphingosine, all from Sigma-Aldrich). […] Briefly, COX2 WT and mutant enzymes (1 mU) were resuspended in 100 μl reaction buffer (20 mM HEPES; pH 7.4, 50 mM NaCl, 10 mM MgCl2, 1 mM EGTA, and 0.02% Triton-X100, all from Sigma-Aldrich). Reactions were initiated by adding [^14C] N-AS (1–200 μM (0.1–20 μCi), ARC UK Ltd, ARC-1024) and incubated at 37 °C for 1 h. The reactions were terminated by adding 100 μl of ice-cold reaction buffer containing 5 mM cold N-AS and immediately filtered through P30 filtermat (Perkin-Elmer), followed by five washes.
The binding velocity was plotted and the Kcat and KM values were calculated from the Michaelis-Menten analysis using the Sigma-plot program (ver 10.0, Systat software Inc.).

Data set [2] is described as follows: microsomal stability. Particulars: for half-life at 1 µM: pH 7.4. Type of data set: in vitro ADME. Here is the method:
An N-AS stock solution (10 mM dissolved in methanol) was diluted with methanol to make a concentration of 100 μM. A 10 μl aliquot of this solution was then diluted using 90 μl of 100 mM potassium phosphate buffer (pH 7.4). 10 μl of this N-AS solution was incubated at 37 °C with human or mouse liver microsomes (80 μl of 0.625 mg protein ml^−1 phosphate buffer) for 10 min before adding of 10 μl of an NADPH regenerating system to start the reaction. Reactions were stopped at 0, 15, 30, 60, and 90 min time-points by the addition of 200 μl cold acetonitrile (containing propranolol as internal standard at 20 ng ml^−1) and centrifuged at 17,968×g for 10 min. A 2 μl aliquot of the supernatant was injected into the LC-MS/MS system. The ratio of peak area of test compound/internal standard was used to determine the % remaining of N-AS over time.

The target in data set [3] is T2, CYP 2B6 (Homo sapiens, UniProt P20813).
T2 construct: from tissue; host or cells: human liver microsomes
T2 sequence (P20813 whole entry): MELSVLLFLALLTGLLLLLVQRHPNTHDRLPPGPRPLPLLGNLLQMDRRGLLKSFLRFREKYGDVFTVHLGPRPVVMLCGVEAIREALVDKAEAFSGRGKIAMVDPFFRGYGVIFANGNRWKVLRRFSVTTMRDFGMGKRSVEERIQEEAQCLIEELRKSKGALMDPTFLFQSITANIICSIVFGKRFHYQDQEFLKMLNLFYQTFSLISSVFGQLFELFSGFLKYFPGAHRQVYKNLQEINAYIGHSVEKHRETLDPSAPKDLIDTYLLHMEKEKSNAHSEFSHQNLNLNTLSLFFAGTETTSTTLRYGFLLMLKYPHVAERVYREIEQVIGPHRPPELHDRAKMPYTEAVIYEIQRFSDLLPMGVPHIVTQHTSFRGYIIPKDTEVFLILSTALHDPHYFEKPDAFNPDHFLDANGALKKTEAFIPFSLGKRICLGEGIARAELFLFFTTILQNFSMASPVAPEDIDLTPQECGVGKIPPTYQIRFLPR
As to the kind of experiment: cytochrome P450 inhibition in human liver microsomes. Format: in vitro ADME. How it is done:
(§1) A 10 μl aliquot of this solution was then diluted using 90 μl of 100 mM potassium phosphate buffer (pH 7.4). Probe substrate cocktail solutions for seven major cytochrome P450 isozymes (phenacetin (100 μM for 1A2), bupropion (50 μM for 2B6), diclofenac (20 μM for 2C9), mephenytoin (100 μM for 2C19), dextromethorphan (5 μM for 2D6), chlorzoxazone (50 μM for 2E1), and midazolam (5 μM for 3A4)) were prepared with phosphate buffer. […] Reactions were stopped at 15 min by the addition of 200 μl cold acetonitrile (containing propranolol as internal standard at 20 ng ml^−1) and centrifuged at 17,968×g for 10 min. A 2 μl aliquot of the supernatant was injected into the LC-MS/MS system. The ratio of peak area of test compound /internal standard was used to determine the % metabolic activity of probe substrate according to the concentrations of N-AS added.
(Microsomes from liver hold many membrane-bound enzymes, among them those of drug oxidation.)

The target in data set [4] is T3, CYP 2C19 (Homo sapiens, UniProt P33261).
T3 construct: from tissue; host or cells: human liver microsomes
T3 sequence (P33261 whole entry): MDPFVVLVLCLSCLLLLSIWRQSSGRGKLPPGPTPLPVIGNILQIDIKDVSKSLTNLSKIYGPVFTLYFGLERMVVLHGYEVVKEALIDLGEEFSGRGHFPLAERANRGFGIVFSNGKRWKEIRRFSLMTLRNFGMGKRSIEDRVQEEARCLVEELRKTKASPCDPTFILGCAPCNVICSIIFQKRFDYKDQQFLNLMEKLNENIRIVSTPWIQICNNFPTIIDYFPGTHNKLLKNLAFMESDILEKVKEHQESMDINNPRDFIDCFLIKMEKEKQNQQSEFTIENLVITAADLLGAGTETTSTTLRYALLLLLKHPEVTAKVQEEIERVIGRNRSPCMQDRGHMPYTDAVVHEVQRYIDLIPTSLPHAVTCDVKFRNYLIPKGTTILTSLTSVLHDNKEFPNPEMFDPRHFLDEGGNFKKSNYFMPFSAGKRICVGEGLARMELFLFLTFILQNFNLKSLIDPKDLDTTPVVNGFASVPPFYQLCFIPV
The data set is described as above. Type of data set: in vitro ADME. Here is the method: as §1

Data set [5] deals with T4, CYP 2C9 (Homo sapiens, UniProt P11712).
T4 construct: from tissue; host or cells: human liver microsomes
T4 sequence (P11712 whole entry): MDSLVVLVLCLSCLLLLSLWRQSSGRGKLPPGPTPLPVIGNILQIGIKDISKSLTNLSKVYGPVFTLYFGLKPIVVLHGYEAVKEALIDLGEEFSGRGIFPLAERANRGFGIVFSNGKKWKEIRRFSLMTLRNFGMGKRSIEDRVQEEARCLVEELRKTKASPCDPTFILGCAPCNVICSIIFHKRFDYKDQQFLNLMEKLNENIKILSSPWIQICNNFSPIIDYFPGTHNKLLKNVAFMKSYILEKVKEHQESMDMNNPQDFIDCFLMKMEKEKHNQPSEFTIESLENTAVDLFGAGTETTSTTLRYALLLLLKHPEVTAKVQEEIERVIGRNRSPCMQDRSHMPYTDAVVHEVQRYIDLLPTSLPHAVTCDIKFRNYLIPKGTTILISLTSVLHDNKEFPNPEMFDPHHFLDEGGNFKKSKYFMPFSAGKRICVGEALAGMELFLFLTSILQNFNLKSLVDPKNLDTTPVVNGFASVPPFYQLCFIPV
Described as above. Type of data set: in vitro ADME. How it is done:
as §1

Data set [6] deals with T5, CYP 2E1 (Homo sapiens, UniProt P05181).
T5 construct: from tissue; host or cells: human liver microsomes
T5 sequence (P05181 whole entry): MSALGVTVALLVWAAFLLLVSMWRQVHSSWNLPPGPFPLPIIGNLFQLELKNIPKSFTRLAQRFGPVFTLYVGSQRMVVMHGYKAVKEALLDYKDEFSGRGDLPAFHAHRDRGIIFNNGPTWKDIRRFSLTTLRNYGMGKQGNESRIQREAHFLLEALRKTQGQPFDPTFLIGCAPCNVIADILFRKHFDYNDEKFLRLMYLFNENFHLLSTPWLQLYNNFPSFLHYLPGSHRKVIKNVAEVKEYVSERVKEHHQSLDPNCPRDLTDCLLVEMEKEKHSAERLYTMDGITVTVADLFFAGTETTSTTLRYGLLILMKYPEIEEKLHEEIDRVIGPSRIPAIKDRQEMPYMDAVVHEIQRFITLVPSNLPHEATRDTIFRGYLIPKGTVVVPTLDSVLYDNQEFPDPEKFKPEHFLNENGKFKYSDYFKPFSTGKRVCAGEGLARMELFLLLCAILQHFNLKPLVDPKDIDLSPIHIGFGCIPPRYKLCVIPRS
The description is as above. Type of data set: in vitro ADME. Here is the method:
as §1

Data set [7] has as its target T6, CYP 3A4 (Homo sapiens, UniProt P08684).
T6 construct: from tissue; host or cells: human liver microsomes
Described as above. Format: in vitro ADME. Here is the method:
as §1

Values joined by “and” are separate entries in the source; they are usually repeats but may differ in a detail not shown here. Equal entries are not always repeated.

T6 sequence (P08684 whole entry): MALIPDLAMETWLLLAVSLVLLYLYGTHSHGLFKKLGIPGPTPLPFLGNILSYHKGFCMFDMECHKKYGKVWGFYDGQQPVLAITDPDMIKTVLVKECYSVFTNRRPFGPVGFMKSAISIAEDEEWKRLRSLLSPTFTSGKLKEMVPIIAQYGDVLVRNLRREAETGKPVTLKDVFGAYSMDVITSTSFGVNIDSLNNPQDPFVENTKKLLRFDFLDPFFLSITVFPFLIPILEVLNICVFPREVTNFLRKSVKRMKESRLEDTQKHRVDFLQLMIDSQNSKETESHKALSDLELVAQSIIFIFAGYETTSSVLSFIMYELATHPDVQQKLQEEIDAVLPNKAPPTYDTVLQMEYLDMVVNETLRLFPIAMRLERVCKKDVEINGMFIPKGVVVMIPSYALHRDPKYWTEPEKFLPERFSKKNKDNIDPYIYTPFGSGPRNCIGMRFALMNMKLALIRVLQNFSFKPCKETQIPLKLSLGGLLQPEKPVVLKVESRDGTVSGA

In general, half-life refers to the time needed for the level to fall by half in the phase considered. Read a high half-life as slow loss. Usually IC50 stands for the concentration needed to halve the response being measured. Consider `CCCCCCCCCCCCC/C=C/[C@@H](O)[C@H](CO)NC(C)=O` [N-AS, N-((2S,3R,E)-1,3-Dihydroxyoctadec-4-en-2-yl)acetamide], for which the “binding velocity (Vbinding)” value in data set [1] (1 uM (100 pmol)) is 0.888 nM/min and 1.293 nM/min and 0.920 nM/min; in data set [1] (5 uM (500 pmol)), 5.664 nM/min and 7.362 nM/min and 11.711 nM/min; in data set [1] (10 uM (1000 pmol)) it was 14.955 nM/min and 10.446 nM/min and 14.278 nM/min; in data set [1] (20 uM (2000 pmol)) it was 30.848 nM/min and 29.462 nM/min and 25.197 nM/min; in data set [1] (100 uM (10000 pmol)), 52.281 nM/min and 47.667 nM/min and 52.002 nM/min; in data set [1] (200 uM (20000 pmol)), 58.338 nM/min and 57.809 nM/min and 65.044 nM/min. The “% of remaining after 0.5 h” value in data set [2] (Mouse liver microsomes) is recorded as 60.7%. For the same compound, the half-life at 1 µM in data set [2] (Human liver microsomes) is 36 min; in data set [2] (Mouse liver microsomes) it was 54 min. Further, the IC50 in data set [3], in data set [4], in data set [5], in data set [6] and in data set [7] was over 10 µM each time. For the same compound, the activity at 15 min, 25 µM came out at 92.7% in data set [3] (human, liver microsomes, pH 7.4, probe bupropion, N-AS 25 µM, read-out: % of control at 25 µM); 79.6% in data set [4] (human, liver microsomes, pH 7.4, probe mephenytoin, N-AS 25 µM, read-out: % of control at 25 µM); 95.5% in data set [5] (human, liver microsomes, pH 7.4, probe diclofenac, N-AS 25 µM, read-out: % of control at 25 µM); 84% in data set [6] (human, liver microsomes, pH 7.4, probe chlorzoxazone, N-AS 25 µM, read-out: % of control at 25 µM); 114% in data set [7] (human, liver microsomes, pH 7.4, probe midazolam, N-AS 25 µM, read-out: % of control at 25 µM).
